Source: patent publication US20110118353A1, “METHOD OF HORMONE SUPPRESSION IN HUMANS” (N. V. Organon, priority 2007, published 2011)

What was measured:
Type in all cases: in vivo, human
FSH [1] = assay: Experiment 4: single oral dose pharmacodynamic study, serum FSH (DELFIA); details: healthy male volunteers, single oral doses 4, 8, 16 mg
Description: (§1) A phase I, double-blind, parallel groups, placebo-controlled, cross-over, pharmacodynamic study with compound 1 in healthy male volunteers to assess glycinergic responses in cerebro-spinal fluid and plasma after single oral doses
(§2) This was a double-blind, placebo-controlled, parallel group trial in 15 subjects, randomized to 3 parallel groups of 5 subjects each. The subjects received two single doses in a randomized cross-over design. There was an interval of at least 3 days between the drug administrations. Subjects were male volunteers with a good physical and mental health, aged 18-45 years, body mass index 18-28 kg/m^2.
(§3) A freeze dried cake of compound 1 (Batch No CW122) was reconstituted with sterile water and subsequently further diluted with orange juice to a total volume of 200 mL for oral administration. Dose levels used were: • Group 1: 8 mg compound 1 and […] • Group 2: 16 mg compound 1 and placebo • Group 3: 8 mg compound 1 and 4 mg compound 1
(§4) Serum samples for LH, FSH and testosterone analysis were taken at time points: pre-dose and 1, 2, 3, 4, 6 and 12 hours post dose. Serum was stored at −40° C.
(§5) LH and FSH were measured using a DELFIA assay. […] Testosterone was measured using a DELFIA testosterone assay; a solid phase fluoro-immuno-assay based on competition between Europium-labeled Testosterone and sample Testosterone.

LH [2] = assay: Experiment 1: single rising oral dose trial, serum LH (DELFIA); details: healthy male volunteers, single oral doses 0.5-30 mg, 0 to 12 hours post-dose, vs placebo
Description: (§6) A double-blind, cross-over, placebo controlled, single rising oral dose trial with compound 1 was carried out in healthy male volunteers to assess its tolerability, safety, pharmacokinetic and pharmacodynamic profile.
(§7) This was a double-blind, placebo-controlled, single rising oral dose study in 16 subjects. Each subject was assigned to one of 4 dosing groups and received 3 successive single oral doses of compound 1 and placebo in a four-way cross-over design. Subjects were male volunteers with a good physical and mental health, aged 18-45 years, body mass index […]. […]
as §5
(§8) Effect of treatment was characterised by calculating areas under the effect curve (AUE) over 0-4 h and 0-final assessment time periods. AUEs were calculated with the linear trapezoidal rule using protocol times. […] All measures were analysed using analysis of variance with factors subject and treatment and with the prevalue as covariate. A linear contrast on dose group was calculated with dose groups assigned in ascending order.

LH [3] = assay: Experiment 2: single-dose crossover trial, serum LH (DELFIA); details: healthy male volunteers, single oral doses 5, 13, 20 mg
Description: (§9) A single-dose, double-blind, placebo-controlled, randomized, crossover trial to evaluate visual effects of compound 1 in healthy male volunteers
(§10) This was a double-blind, placebo-controlled, four-period crossover study involving the administration of three single oral doses of compound 1 and placebo in 24 healthy male subjects. For each subject the compound 1 treatments were randomized in ascending order, each treatment period was separated by at least 3 days wash-out. Subjects were male volunteers with a good physical and mental health, aged 18-45 years, body mass index 18-28 kg/m^2.
(§11) A freeze dried cake of compound 1 (Batch No CW122) was reconstituted with de-ionized water BP and subsequently diluted with gelatin/mannitol to 50 mL solution for oral administration. Dose levels of compound 1 used in this trial were: 5 mg, 13 mg and 20 mg
(§12) Serum samples for LH, FSH and testosterone analysis were taken at time points: pre-dose and 20′, 45′, 1h10′, 1h35′, 2h, 2h25′, 2h50′, 3h15′, 4h, 6h, 8h, 12h, 16h and 24h post-dose. Serum was stored at −40° C.
(§13) LH and FSH were measured using a DELFIA assay. The DELFIA LH and DELFIA FSH assays are solid phase, two-site fluoroimmunometric assays based on the direct sandwich technique. Testosterone was measured using a DELFIA testosterone assay; a solid phase fluoro-immuno-assay based on competition between Europium-labeled Testosterone and sample Testosterone.
(§14) Descriptive statistics for serum FSH, LH and testosterone concentrations were calculated, both as absolute values and as percentage of baseline. In addition the following parameters were calculated: Cmin, tmin, Cmean,0-24, both Cmin and Cmean,0-24 were expressed in absolute values and as percentage of baseline. No formal statistical analysis was done on these PD parameters. Only descriptive statistics were calculated by dose. Furthermore, summary plots of the PD parameters versus treatment were made

LH [4] = assay: Experiment 3: multiple oral dose study, serum LH (DELFIA); details: healthy male volunteers, 4, 8, 16 mg q.d. or 12 mg b.i.d. oral
Description: (§15) A phase I, double-blind, placebo-controlled, parallel group, multiple oral dose and multiple ascending dose study with compound 1 in healthy male volunteers to assess the safety, tolerability, pharmacokinetics and pharmacodynamics of compound 1 after single, multiple and multiple ascending doses.
(§16) This was a single center, double-blind, placebo-controlled, parallel group design. A total of 40 subjects were randomized over 5 groups of 8 subjects; within each group 6 subjects received multiple oral doses of compound 1 and 2 subjects received placebo. Subjects were male volunteers with a good physical and mental health, aged 18-45 years, body mass index 18-28 kg/m^2.
(§17) Freeze dried cake of compound 1 (Batch No. CW 186) was supplied in 10 mL vials (50 mg active entity in 10 mL vials). The freeze dried cake was reconstituted with sterile de-ionized water B.P and subsequently diluted with sterile de-ionized water to a dose volume of 50 mL. […]
(§18) LH and FSH were measured using a DELFIA assay. […] Testosterone was measured using a DELFIA testosterone assay; a solid phase fluoro-immuno-assay based on competition between Europium-labeled Testosterone and sample Testosterone. […]

LH [5] = assay: Experiment 4: single oral dose pharmacodynamic study, serum LH (DELFIA); details: healthy male volunteers, single oral doses 4, 8, 16 mg
Description: as §1, §2, §3, §4, §5

FSH [6] = assay: Experiment 3: multiple oral dose study, serum FSH (DELFIA); details: healthy male volunteers, 4, 8, 16 mg q.d. or 12 mg b.i.d. oral
Description: as §15, §16, §17, §18

testosterone [7] = assay: Experiment 4: single oral dose pharmacodynamic study, serum testosterone (DELFIA); details: healthy male volunteers, single oral doses 4, 8, 16 mg
Description: as §1, §2, §3, §4, §5

FSH [8] = assay: Experiment 1: single rising oral dose trial, serum FSH (DELFIA); details: healthy male volunteers, single oral doses 0.5-30 mg, 0-12 h period; slower than LH
Description: as §6, §7, §5, §8

testosterone [9] = assay: Experiment 1: single rising oral dose trial, serum testosterone (DELFIA); details: healthy male volunteers, single oral doses 0.5-30 mg, 0-12 h period; slower than LH
Description: as §6, §7, §5, §8

testosterone [10] = assay: Experiment 2: single-dose crossover trial, serum testosterone (DELFIA); details: healthy male volunteers, single oral doses 5, 13, 20 mg
Description: as §9, §10, §11, §12, §13, §14

FSH [11] = assay: Experiment 2: single-dose crossover trial, serum FSH (DELFIA); details: healthy male volunteers, single oral doses 5, 13, 20 mg
Description: as §9, §10, §11, §12, §13, §14

testosterone [12] = assay: Experiment 3: multiple oral dose study, serum testosterone (DELFIA)
Description: as §15, §16
Freeze dried cake of compound 1 (Batch No. CW 186) was supplied in 10 mL vials (50 mg active entity in 10 mL vials). The freeze dried cake was reconstituted with sterile de-ionized water B.P and subsequently diluted with sterile de-ionized water to a dose volume of 50 mL. Compound 1 was administered as an oral solution (50 mL) according to the following schedule: • Group 1: a single dose of 4 mg compound 1 on day 1 followed by once daily dosing of 4 mg compound 1 on days 4 to 13 • Group 2: a single dose of 8 mg compound 1 on day 1 followed by once daily dosing of 8 mg compound 1 on days 4 to 13 • Group 3: a single dose of 16 mg compound 1 on day 1 followed by once daily dosing of 16 mg compound 1 on days 4 to 13 • Group 4: a single dose of 12 mg compound 1 on day 1, twice daily dosing of 12 mg compound 1 on days 4 to 12 followed by a single dose of 16 mg compound 1 on day 13
For group 5 a dose titration was used. In this group no samples for LH, FSH and testosterone were taken. […]
as §18

[13] = 0-24 h, compared with adjusted Cmin
[14] = decrease generally largest after 16 mg

SMILES: COc1ccc2c(c1)CC[C@H](CN(C)CC(=O)O)[C@@H]2c1ccccc1.Cl [compound 1]
- effect on FSH (FSH [1]): No effect
- treatment effect on LH levels (decrease) (LH [2]): statistically significant treatment effect
- adjusted Cmin LH (LH [3]): decrease with increasing active dose
- time of largest LH decrease post dose (LH [3]): approximately 4 h
- adjusted Cmean LH (LH [3]; [13]): decreases are smaller and less consistent
- LH concentrations after treatment (LH [3]; decreases larger at increasing doses): decrease after compound 1 treatment
- time of maximum decreases in LH after dosing (LH [4]): 2 h
- mean LH values (LH [4]; [14]): decreased following dosing
- LH suppression (LH [5]): suppressed to some extent
- time of maximum decrease in FSH values post-dose (FSH [6]): 6 to 12 h
- mean FSH values (FSH [6]; [14]): decreased following dosing
- testosterone suppression (testosterone [7]): suppressed to some extent
- FSH concentrations, linear contrast on dose (FSH [8]): significant linear decreases with rising doses
- testosterone concentrations, linear contrast on dose (testosterone [9]): significant linear decreases with rising doses
- adjusted Cmin Testosterone (testosterone [10]): decrease with increasing active dose
- adjusted Cmean testosterone (testosterone [10]; [13]): decreases are smaller and less consistent
- testosterone concentrations after treatment (testosterone [10]; decreases larger at increasing doses, somewhat slower than LH): decrease after compound 1 treatment
- adjusted Cmin FSH (FSH [11]): decrease with increasing active dose
- effect on FSH concentrations (FSH [11]): not clearly visible
- adjusted Cmean FSH (FSH [11]; [13]): decreases are smaller and less consistent
- time post-dose until which testosterone levels dropped (testosterone [12]; healthy male volunteers, 4, 8, 16 mg q.d. or 12 mg b.i.d. oral): 6 to 12 h
- testosterone levels after dosing (testosterone [12]; healthy male volunteers, 4, 8, 16 mg q.d. or 12 mg b.i.d. oral, partly circadian rhythm, afterwards back to approximately baseline): dropped sharply after dosing
- magnitude of the testosterone decrease compared with placebo (testosterone [12]; largest decreases in the 16 mg q.d. and 12 mg b.i.d groups): generally larger following administration of compound 1
